Measurements as given in PubChem BioAssay (NCI).
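Where inhibition never reached the appropriate level, the endpoint shown equals the highest concentration tested. Otherwise, values were interpolated linearly from a five-concentration, 48-hour dose response in 96-well plates. TGI marks complete inhibition of growth.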

Legend:
Experiment in all cases: NCI anticancer screen, dose series, 48 h
[1] = test system: T-47D breast
[2] = test system: LOX IMVI melanoma
[3] = test system: RPMI-8226 leukemia
[4] = test system: KM12 colon
[5] = test system: MALME-3M melanoma
[6] = test system: EKVX NSCLC
[7] = test system: A498 renal
[8] = test system: OVCAR-8 ovarian
[9] = test system: SR leukemia
[10] = test system: MOLT-4 leukemia
[11] = test system: SF-268 CNS
[12] = test system: SF-295 CNS
[13] = test system: MCF7 breast
[14] = test system: UO-31 renal
[15] = test system: SNB-19 CNS
[16] = test system: OVCAR-4 ovarian
[17] = test system: UACC-62 melanoma
[18] = test system: SK-MEL-5 melanoma
[19] = test system: SK-MEL-28 melanoma

Measured: TGI

O=C1CSC(c2ccccc2O)N1c1nc2cc3sc(N4C(=O)CSC4c4ccccc4O)nc3cc2s1 (centres undefined)
> 100 µM: all assays above
